Source: ChEMBL document CHEMBL1201862, “PubChem BioAssay data set” (2004)
Activity calls are given as the source filed them.

Assays:
[1] = biological target: T1, Calpain-2 catalytic subunit (Sus scrofa, UniProt P43367); assay: m-calpain protease blockers, concentration series – biochemical, fluorogenic peptide substrate, dose response (AID 1420); format: functional
T1 sequence (P43367 whole entry): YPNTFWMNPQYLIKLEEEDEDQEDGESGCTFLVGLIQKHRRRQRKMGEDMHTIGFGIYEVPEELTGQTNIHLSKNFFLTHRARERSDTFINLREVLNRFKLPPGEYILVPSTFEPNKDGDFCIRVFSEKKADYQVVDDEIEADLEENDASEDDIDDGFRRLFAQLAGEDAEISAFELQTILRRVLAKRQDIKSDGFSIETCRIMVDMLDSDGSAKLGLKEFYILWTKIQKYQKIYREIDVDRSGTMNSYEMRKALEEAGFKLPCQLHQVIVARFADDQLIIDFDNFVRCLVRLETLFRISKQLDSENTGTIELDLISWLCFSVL

[2] = biological target: Heat shock protein HSP 90-alpha (Homo sapiens, UniProt P07900); format: functional, organism-based
[3] = biological target: T2, Heat shock factor protein 1 (Mus musculus, UniProt P38532); assay: enhancement of HSF1-driven luciferase signal – cell-based, NIH3T3, luminescence, dose retest, confirmation (AID 435004); format: functional;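 note: stress induced by proteasome inhibitor MG132 added 30 min after compound; luciferase reporter driven by HSF1 response element in NIH3T3 cells; actives raise luminescence as potentiators of the MG132 stress response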
T2 sequence (P38532 whole entry): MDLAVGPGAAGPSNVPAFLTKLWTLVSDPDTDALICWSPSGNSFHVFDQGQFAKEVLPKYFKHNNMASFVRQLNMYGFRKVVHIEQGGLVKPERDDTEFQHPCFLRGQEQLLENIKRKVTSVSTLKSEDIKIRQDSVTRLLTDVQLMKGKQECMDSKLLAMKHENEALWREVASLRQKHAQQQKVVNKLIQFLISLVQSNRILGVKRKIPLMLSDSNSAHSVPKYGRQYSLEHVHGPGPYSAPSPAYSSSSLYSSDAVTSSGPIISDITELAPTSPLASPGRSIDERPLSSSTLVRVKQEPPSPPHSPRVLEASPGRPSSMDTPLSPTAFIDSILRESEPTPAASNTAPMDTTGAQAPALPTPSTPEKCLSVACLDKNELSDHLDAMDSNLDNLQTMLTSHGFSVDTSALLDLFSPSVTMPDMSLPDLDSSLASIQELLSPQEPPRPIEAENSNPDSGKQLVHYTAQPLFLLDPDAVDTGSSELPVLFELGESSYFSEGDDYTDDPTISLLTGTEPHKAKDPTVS

[4] = biological target: Luciferin 4-monooxygenase (Photinus pyralis, UniProt P08659); assay: inhibition of purified Photinus pyralis luciferase – biochemical, luminescence, dose response (AID 1891)
[5] = Luminescence Cell-Based Dose Confirmation HTS to Identify Inhibitors of Platelet Dense Granule Release. [Related pubchem assays: 1663 (Primary HTS), 1678 (Summary of Project)]; format: functional
INS1 = assay: INS-1E survival protection against cytokine death – cell-based, luminescence, retest, dose response (AID 449756); format: functional; conditions: Rattus norvegicus;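 note: cell death triggered by IL-1 beta plus TNF-alpha plus IFN-gamma mixture; protective hits raise ATP signal compared with cytokine alone wells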
[6] = Luminescence Cell-Based Dose Response HTS to Identify Activators of Luciferase Translation or Activity in H4 […] Cells. [Related pubchem assays: 1829 (Project Summary), 1814 (Primary HTS)]; format: functional
H4 = assay: Luminescence Cell-Based Dose Response HTS to Identify Activators of 5'UTR Stem-Loop Driven Prion Protein mRNA Translation in H4 Neuroglioblastoma Cells. [Related pubchem assays: 1829 (Project Summary), 1814 (Primary HTS)]; format: functional; conditions: Homo sapiens
Large T antigen = Large T antigen (Simian virus 40, UniProt P03070); format: functional, Betapolyomavirus macacae;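 note: Confirmatory-stage PubChem screen for compounds that inhibit SV40 T antigen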
Paired box protein Pax-8 = Paired box protein Pax-8 (Homo sapiens, UniProt Q06710); assay: PAX8 transcriptional activity inhibition in RMG-I – RMG-I cells, luciferase, cherry-pick, dose response (AID 687027); format: functional, cell-based;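 note: luciferase reporter driven by Pax8 target thyroperoxidase promoter measured by SteadyGlo luminescence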
H9c2 = assay: cells; format: functional, cell-based; conditions: Rattus norvegicus, H9c2, Myocardium;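 note: confirmatory concentration-response retest of ultra-high-throughput screening hits for modulation of myocardial damage; cell death induced by hydrogen peroxide oxidative stress; compound pretreatment for 60 min then peroxide exposure for 2 h; potency is for protecting the cells against peroxide damage rather than for killing them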
Cytochrome P450 1A2 = biological target: T3, Cytochrome P450 1A2 (Homo sapiens, UniProt P05177);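 note: PubChem cytochrome P450 panel assay, CYP1A2 panel member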
T3 sequence (P05177 whole entry): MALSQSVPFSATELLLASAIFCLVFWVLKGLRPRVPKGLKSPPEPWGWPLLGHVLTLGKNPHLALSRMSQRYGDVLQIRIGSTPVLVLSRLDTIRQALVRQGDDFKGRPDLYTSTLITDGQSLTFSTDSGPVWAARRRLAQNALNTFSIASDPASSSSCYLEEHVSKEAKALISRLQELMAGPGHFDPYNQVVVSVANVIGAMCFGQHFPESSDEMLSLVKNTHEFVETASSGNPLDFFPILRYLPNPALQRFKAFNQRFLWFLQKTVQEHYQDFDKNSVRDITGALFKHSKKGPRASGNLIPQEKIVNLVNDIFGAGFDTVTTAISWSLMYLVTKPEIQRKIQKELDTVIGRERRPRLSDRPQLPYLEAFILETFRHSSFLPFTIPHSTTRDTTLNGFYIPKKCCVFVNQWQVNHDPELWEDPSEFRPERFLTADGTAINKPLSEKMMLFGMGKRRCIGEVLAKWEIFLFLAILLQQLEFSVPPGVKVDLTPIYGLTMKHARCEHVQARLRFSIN

Cytochrome P450 2C19 = Cytochrome P450 2C19 (Homo sapiens, UniProt P33261); assay: Cytochrome panel assay with activity outcomes. Panel member name: p450-cyp2c19 Compounds with AC50 equal or less than 10 uM are considered active; format: functional; conditions: read-out: AC50
[7] = biological target: T4, Zinc finger protein mex-5 (Caenorhabditis elegans, UniProt Q9XUB2); assay: potency of MEX-5 RNA-binding blockers – biochemical, C. elegans, fluorescence polarization, dose response (AID 1960)
T4 sequence (Q9XUB2 whole entry): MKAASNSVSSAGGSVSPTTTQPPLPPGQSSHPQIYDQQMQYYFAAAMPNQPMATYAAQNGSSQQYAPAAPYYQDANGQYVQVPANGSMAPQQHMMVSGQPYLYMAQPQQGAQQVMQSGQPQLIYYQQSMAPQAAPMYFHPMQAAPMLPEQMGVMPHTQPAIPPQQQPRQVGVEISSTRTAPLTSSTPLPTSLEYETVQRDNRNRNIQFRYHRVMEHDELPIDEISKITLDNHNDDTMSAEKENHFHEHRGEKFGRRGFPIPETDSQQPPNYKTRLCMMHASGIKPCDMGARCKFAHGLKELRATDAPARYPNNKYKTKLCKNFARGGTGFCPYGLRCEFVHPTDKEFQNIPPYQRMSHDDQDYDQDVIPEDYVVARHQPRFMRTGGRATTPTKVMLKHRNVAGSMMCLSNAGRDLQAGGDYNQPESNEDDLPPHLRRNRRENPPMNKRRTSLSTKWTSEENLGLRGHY

[8] = biological target: T5, RNA-binding protein pos-1 (Caenorhabditis elegans, UniProt G5EF15); assay: disruptors of C. elegans POS-1 RNA interaction – biochemical, fluorescence polarization, dose response (AID 1964);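 note: purified POS-1 fused to maltose binding protein made in E. coli; potency of compounds blocking POS-1 binding to fluorescent RNA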
T5 sequence (G5EF15 whole entry): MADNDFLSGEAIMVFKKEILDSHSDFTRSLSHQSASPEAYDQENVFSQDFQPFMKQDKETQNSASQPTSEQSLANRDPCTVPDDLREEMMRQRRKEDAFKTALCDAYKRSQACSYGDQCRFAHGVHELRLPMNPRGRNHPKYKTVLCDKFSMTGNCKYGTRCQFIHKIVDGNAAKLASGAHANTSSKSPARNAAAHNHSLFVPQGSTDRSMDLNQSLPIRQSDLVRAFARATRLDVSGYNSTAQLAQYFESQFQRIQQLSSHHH

Chain of Luciferin 4-monooxygenase (P08659 whole entry): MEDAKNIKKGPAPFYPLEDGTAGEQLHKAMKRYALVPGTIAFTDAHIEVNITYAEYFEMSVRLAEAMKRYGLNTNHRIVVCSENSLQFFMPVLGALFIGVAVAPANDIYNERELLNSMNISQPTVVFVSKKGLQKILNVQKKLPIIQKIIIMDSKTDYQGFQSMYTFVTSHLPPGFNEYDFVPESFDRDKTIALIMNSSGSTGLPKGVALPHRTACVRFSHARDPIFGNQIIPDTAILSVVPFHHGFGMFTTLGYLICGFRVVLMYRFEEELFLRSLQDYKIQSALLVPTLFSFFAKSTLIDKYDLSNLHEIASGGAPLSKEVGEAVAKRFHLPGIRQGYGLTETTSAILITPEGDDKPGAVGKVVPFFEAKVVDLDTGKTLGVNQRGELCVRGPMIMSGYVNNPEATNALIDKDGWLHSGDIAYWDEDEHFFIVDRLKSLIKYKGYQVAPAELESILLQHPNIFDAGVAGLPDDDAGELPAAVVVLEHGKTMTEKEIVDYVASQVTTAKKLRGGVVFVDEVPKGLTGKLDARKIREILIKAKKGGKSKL
Chain of Large T antigen (P03070 whole entry): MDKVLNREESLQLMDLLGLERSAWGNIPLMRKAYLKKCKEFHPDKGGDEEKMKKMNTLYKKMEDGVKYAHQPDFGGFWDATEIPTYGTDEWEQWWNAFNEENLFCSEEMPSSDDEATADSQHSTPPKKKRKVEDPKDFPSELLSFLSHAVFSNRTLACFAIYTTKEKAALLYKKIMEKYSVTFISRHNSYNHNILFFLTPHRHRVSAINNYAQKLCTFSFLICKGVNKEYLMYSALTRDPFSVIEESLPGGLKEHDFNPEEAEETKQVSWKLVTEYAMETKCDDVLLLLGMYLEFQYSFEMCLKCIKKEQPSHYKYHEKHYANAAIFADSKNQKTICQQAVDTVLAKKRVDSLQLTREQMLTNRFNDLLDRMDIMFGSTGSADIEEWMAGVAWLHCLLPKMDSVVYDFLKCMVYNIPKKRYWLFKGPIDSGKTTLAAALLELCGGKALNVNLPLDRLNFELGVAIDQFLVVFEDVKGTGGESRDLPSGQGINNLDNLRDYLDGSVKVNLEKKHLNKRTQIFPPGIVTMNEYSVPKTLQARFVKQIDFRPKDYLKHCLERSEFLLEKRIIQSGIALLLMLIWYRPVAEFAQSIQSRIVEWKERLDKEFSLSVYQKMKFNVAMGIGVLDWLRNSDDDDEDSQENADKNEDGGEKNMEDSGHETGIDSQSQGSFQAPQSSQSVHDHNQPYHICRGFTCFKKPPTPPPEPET
Chain of Paired box protein Pax-8 (Q06710 whole entry): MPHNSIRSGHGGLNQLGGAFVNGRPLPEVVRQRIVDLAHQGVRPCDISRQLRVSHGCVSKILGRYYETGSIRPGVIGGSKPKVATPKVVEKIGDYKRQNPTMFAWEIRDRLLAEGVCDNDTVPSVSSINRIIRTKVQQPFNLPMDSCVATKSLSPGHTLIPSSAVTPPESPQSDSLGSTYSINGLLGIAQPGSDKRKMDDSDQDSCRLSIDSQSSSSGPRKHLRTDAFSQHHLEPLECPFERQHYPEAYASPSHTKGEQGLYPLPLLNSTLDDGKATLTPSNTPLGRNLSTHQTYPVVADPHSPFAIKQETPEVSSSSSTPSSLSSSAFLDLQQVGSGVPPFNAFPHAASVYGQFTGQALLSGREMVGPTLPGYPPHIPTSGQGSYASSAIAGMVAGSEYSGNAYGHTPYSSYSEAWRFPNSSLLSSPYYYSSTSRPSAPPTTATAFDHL
Chain of Cytochrome P450 2C19 (P33261 whole entry): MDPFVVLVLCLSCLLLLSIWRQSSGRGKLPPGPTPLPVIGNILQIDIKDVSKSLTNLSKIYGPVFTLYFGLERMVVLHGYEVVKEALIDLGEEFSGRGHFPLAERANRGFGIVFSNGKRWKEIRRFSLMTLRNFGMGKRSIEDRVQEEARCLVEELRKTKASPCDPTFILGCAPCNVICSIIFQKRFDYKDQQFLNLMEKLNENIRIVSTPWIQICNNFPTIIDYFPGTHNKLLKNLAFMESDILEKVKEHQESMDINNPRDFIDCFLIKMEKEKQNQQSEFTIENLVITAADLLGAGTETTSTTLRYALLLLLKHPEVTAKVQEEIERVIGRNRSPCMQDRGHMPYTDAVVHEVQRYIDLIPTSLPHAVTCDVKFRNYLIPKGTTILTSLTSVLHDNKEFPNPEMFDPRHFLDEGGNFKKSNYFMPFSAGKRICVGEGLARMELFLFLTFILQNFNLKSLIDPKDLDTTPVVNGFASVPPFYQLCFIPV

In the case of `Cc1cc(NC(=O)CCN2C(=O)/C(=C/c3ccccc3Cl)SC2=S)no1`, the IC50 [1] was > 50 µM (not active).

For `O=C(NC1CCCCC1)C1c2ccccc2C(=O)N1Cc1ccc2c(c1)OCO2` (stereo unspecified), the IC50 [1] was 20.2 µM (not active).

With `O=C1c2ccccc2C(=O)N1CCCC(=O)N1CCCc2ccccc21` the IC50 [1] was > 50 µM (not active).

In the case of `CCn1c(CNc2ccc(Cl)cc2)nnc1SCc1ccccc1`, the AC50 [2] was 1.57 µM (active).

For `CCOC(=O)c1ccc(N2C(=O)CC(N3CCC(Nc4ccc(F)cc4)CC3)C2=O)cc1` (stereo unspecified), the EC50 [3] was > 260 µM (inactive) and the AC50 [2] was 3.01 µM (active).

For `CCNc1nc(NC#N)nc(SCC(=O)OCC)n1`, the EC50 [4] was > 112 µM (not active) and the EC50 [5] was > 112 µM (not active).

For `CCCCSc1nnc(-c2ccccc2)c2ccccc12`, the IC50 [1] was 9.31 µM (not active).

With `Cc1ccc(C(=O)N/C(=C\c2ccc(-c3ccccc3[N+](=O)[O-])o2)C(=O)NCCCN2CCOCC2)cc1` the AC50 (INS1) was 6.33 µM (active).

With `CCCCCCCCNC(=O)c1ccc(C)cc1` the IC50 [1] was 10.1 µM (not active).

In the case of `CC(C)(C)c1ccc(CNc2ccc([N+](=O)[O-])cn2)cc1`, the IC50 [1] was 5.15 µM (active).

In the case of `CCN(CC)S(=O)(=O)c1cc(OCC(N)=O)c(C)cc1Cl`, the EC50 [4] was > 112 µM (not active) and the EC50 [5] was > 112 µM (not active).

In the case of `O=c1cc(CN2CCN(c3ccccc3O)CC2)nc2sccn12`, the EC50 [4] was > 112 µM (not active) and the EC50 [5] was 53.2 µM (active).

For `CCOc1ccc(N2C(=O)/C(=C/c3ccccc3)N=C2SC)cc1`, the EC50 [6] was 0.135 µM (active) and the EC50 (H4) was 108 µM (active).

For `CSc1ccc(/C=C2\C(=N)N3N=C(CC(=O)N4CCOCC4)SC3=NC2=O)cc1`, the EC50 [4] was > 112 µM (not active) and the EC50 [5] was > 112 µM (not active).

For `Nc1cc(Oc2cccnc2)cc([N+](=O)[O-])c1`, the IC50 [1] was > 50 µM (not active).

With `O=C(Cc1cn(Cc2cccc(Cl)c2)c2ccccc12)N1CCCC1` the IC50 [1] was 17.1 µM (not active).

For `Cc1ccc(-c2nnc(Nc3ccc(O)cc3)c3ccccc23)cc1S(=O)(=O)NCCO`, the IC50 (Large T antigen) was 13.2 µM (active).

In the case of `Cc1ccc(S(=O)(=O)NCC23C=CC(O2)C2C(=O)N(c4ccccc4)C(=O)C23)cc1` (stereo unspecified), the AC50 [2] was 17.7 µM (active).

For `O=C(Nc1nccs1)C1CCN(S(=O)(=O)c2ccc(F)cc2)CC1`, the EC50 [4] was > 112 µM (not active) and the EC50 [5] was 18.6 µM (active).

With `O=C(CCCN1C(=O)/C(=C/c2cccc(Br)c2)SC1=S)Nc1ccccn1` the AC50 (Paired box protein Pax-8) was 5.71 µM (active).

With `O=C(Nc1ccc(F)cc1)C1CCCCC1` the EC50 [4] was > 112 µM (not active) and the EC50 [5] was > 112 µM (not active).

In the case of `O=C(CSc1nc2ccccc2c(=O)n1-c1ccccc1)N1CCc2ccccc2C1`, the AC50 (INS1) was 3.61 µM (active).

With `COc1ccc(C(=O)N2CCCc3ccccc32)cc1` the EC50 [4] was > 112 µM (not active) and the EC50 [5] was > 112 µM (not active).

For `Cc1cccc(Oc2cc(N)cc([N+](=O)[O-])c2)c1`, the IC50 [1] was > 50 µM (not active).

In the case of `COc1ccc(/C=N/NC(=O)c2sccc2OCc2ccc(F)cc2)cc1OC`, the IC50 (H9c2) was > 79 µM (inactive), the AC50 (Cytochrome P450 1A2) was 14.1 µM (inconclusive) and the AC50 (Cytochrome P450 2C19) was 17.8 µM (inconclusive).

For `COCCNC(=S)N/N=C(\C)c1ccc(O)cc1`, the IC50 (Large T antigen) was 10.8 µM (active).

For `CO[C@H]1CN(C)C(=O)c2cc(NC(=O)c3nc4ccccc4s3)ccc2OC[C@H](C)N(Cc2cccnc2)C[C@H]1C`, the AC50 (Paired box protein Pax-8) was 18.8 µM (active).

For `CCCn1c(=O)c2[nH]c(-c3ccc(OCC(=O)Nc4ccc(C#N)cc4)cc3)nc2n(CCC)c1=O`, the IC50 (H9c2) was > 79 µM (inactive) and the AC50 (Cytochrome P450 1A2) was 31.6 µM (inconclusive).

With `C(=N\Nc1nc2ccccc2[nH]1)/c1cccs1` the IC50 (Large T antigen) was 16.9 µM (active).

In the case of `C/N=C1\S/C(=C\c2ccc(O)c(OC)c2)C(=O)N1C`, the IC50 (Large T antigen) was 11.1 µM (active), the EC50 [7] was > 300 µM (not active) and the EC50 [8] was > 300 µM (not active).

For `COc1cc(/C=N/NC(N)=O)ccc1OCC(=O)N1C(C)CCCC1C` (stereo unspecified), the EC50 [4] was > 112 µM (not active) and the EC50 [5] was 5.74 µM (active).
